Laboratory results reported in US20250134863A1, “MEDICAL AGENT FOR TREATING OR SUPPRESSING PROGRESSION OF AMYOTROPHIC LATERAL SCLEROSIS” (MITSUBISHI TANABE PHARMA CORPORATION, priority 2022, published 2025).
Values joined by “and” are separate entries in the source; they are usually repeats but may differ in a detail not shown here. Equal values may be shown once.

Tests used:
ALS patients [1] = test: Post-hoc statistical analysis 1: percent change in ALSFRS-R slope on transition from placebo to edaravone (16, 17 and 19 trials); format: in vivo, human; conditions: for Percentage change in ALSFRS-R slope, Median: Wilcoxon p=0.0433
Excerpt: (§1) After a 12-week observation period, patients whose ALSFRS-R total score decreased by 1 to 4 points during that period were considered eligible for the trial. In the 16 trial, eligible patients were randomly divided into an edaravone treatment group and a placebo administration group, and patients in each group received administration for 24 weeks (cycles 1 to 6). After completing the 24-week double-blind portion of the 16 trial, patients who received edaravone (E) were randomly assigned to the 17 trial, and during a 24-week double-blind extension period (cycles 7 to 12), edaravone treatment (EE group) or placebo administration (EP group) was performed. On the other hand, all patients from the placebo (P) administration group received edaravone treatment (PE group). All patients received open-label edaravone treatment for the next 12 weeks (cycles 13 to 15).
(§2) Edaravone was administered at a dose of 60 mg by intravenous infusion over 60 minutes, once daily. The infusion was given for 14 days in the first treatment cycle, and for 10 days out of the 14-day treatment period in all subsequent cycles. A 14-day drug holiday period was provided after each treatment cycle.
(§3) Similar to the 16 trial, after a 12-week observation period, patients in the 19 trial were randomly divided into an edaravone treatment group and a placebo administration group, and patients in each group received administration for 24 weeks (cycles 1 to 6). In the 19 trial, after the double-blind treatment period, all patients received open-label edaravone treatment for an additional 24 weeks (cycles 7 to 12). Therefore, the 19 trial included an EE group and a PE group.
In the present analysis, efficacy was analyzed for placebo patients who had completed the 24-week double-blind period (cycles 1 to 6) and had at least one data point in cycle 7. To estimate the percent change in ALSFRS-R slope for transition from placebo administration (baseline to 24 weeks) to edaravone administration (24 weeks 24 to 48 weeks), a random coefficient model was applied to all available ALSFRS-R score data during this period.
A 25% improvement group meets both of the following criteria:
(1) ALSFRS-R slope % change ≥+25% (this change is defined as a clinically significant improvement (Reference 5: Amyotroph Lateral Scler 2010; 11 (1-2): 178-180)) and (2) ALSFRS-R total score at the start of cycle 7 (24 weeks)>24 points (half of the 48-point ALSFRS-R total score) (this helps avoid floor effects related to the ALSFRS-R total score that could lead to false positives in the analysis).
These criteria were used to define a 25% improvement group and a non-25% improvement group. Using a mixed model for repeated measures, the changes in uric acid levels from the start of cycle 7 (24 weeks) to cycle 12 (48 weeks) were summarized for the 25% improvement group and the non-25% improvement group. The correlation between the change in uric acid levels from 24 weeks to 48 weeks and the ALSFRS-R slope percent change was descriptively summarized using the Wilcoxon test.

ALS patients [2] = test: Post-hoc statistical analysis 2: uric acid levels from baseline to cycle 12 (16, 17 and 19 trials); format: in vivo, human
Excerpt: as §1, §2, §3
The blood uric acid levels in the 16 trial, 17 trial, and 19 trial were measured values obtained using the uricase-peroxidase method.
In order to characterize the uric acid level and ALSFRS-R total score profiles at cycle 12, efficacy was analyzed in randomized ALS patients at the start of cycle 7 and randomized ALS patients who received the medical agent at least once after the start of cycle 7.
Descriptive statistics (number of subjects, mean, standard deviation, minimum, maximum) were used to summarize the changes in uric acid levels (mg/dL) and ALSFRS-R total scores from baseline to cycle 12 for the entire population and for the Edaravone treatment group as a subgroup defined by the median baseline uric acid level (4.8 mg/dL). The median baseline uric acid level for all patients (4.8 mg/dL) was derived using the entire edaravone population, including the EE, PE, and EP groups in the 16 trial, the 17 trial, and the 19 trial.

ALS patients [3] = test: Propensity score matching cohort evaluation, EE group vs PRO-ACT placebo, ALSFRS-R total score; format: in vivo, human
Description: In a sensitivity analysis, propensity score matching cohort evaluation was conducted to compare the baseline changes in ALSFRS-R total score at 48 weeks between the EE group from the 16 trial, the 17 trial, and the 19 trial, and a matching cohort from the Pooled Resource Open-Access ALS Clinical Trials Database (hereinafter PRO-ACT) database. The EE group and PRO-ACT placebo group were matched 1:1 using a caliper width of 0.2 of the log it of the propensity score. The propensity score was developed using baseline confounding factors and ALS progression variables (gender, body weight, age, duration of ALS disease, ALSFRS-R total score baseline, uric acid baseline) of the EE group. A balance after the matching was evaluated using a standardized mean difference of less than 0.1 (Reference 6: J Clin Epidemiol 2001; 54 (4): 387-398). The propensity score was added as an explanatory variable for the MMRM analysis. Further, a subgroup analysis of uric acid levels was performed using MMRM analysis within the matching cohort, and the change from baseline in the ALSFRS-R total score at 48 weeks was compared between the EE group and the PRO-ACT placebo group.

ALS patients [4] = test: Post-hoc statistical analysis 2: uric acid levels from baseline to cycle 12 (16, 17 and 19 trials); format: in vivo, human; conditions: placebo-controlled double-blind period (cycles 1-6); edaravone group vs placebo group
ALS patients [5] = conditions: 18 trial; ALS severity of grade 3; very small number of cases; cited from earlier work
[6] = entire placebo-edaravone treatment population
[7] = Subgroup with uric acid level baseline <4.8 mg/dL, EE group
[8] = Subgroup with uric acid level baseline <4.8 mg/dL, EP group
[9] = Subgroup with uric acid level baseline <4.8 mg/dL, PE group
[10] = Subgroup with uric acid level baseline ≥4.8 mg/dL, EE group
[11] = Subgroup with uric acid level baseline ≥4.8 mg/dL, EP group
[12] = Subgroup with uric acid level baseline ≥4.8 mg/dL, PE group
[13] = uric acid level baseline <4.8 mg/dL
[14] = uric acid level baseline ≥4.8 mg/dL

## CC1=NN(c2ccccc2)C(=O)C1 [edaravone, 3-methyl-1-phenyl-2-pyrazolin-5-one]
ALS patients [1]; ALS severity grade 3
  proportion of patients showing improvement in ALSFRS-R slope: 64.3%
  proportion of patients with at least a 25% improvement in ALSFRS-R slope, cutoff of 24 points: 35.7%
ALS patients [1]; ALS severity grade 4
  proportion of patients showing improvement in ALSFRS-R slope: 66.7%
  proportion of patients with at least a 25% improvement in ALSFRS-R slope, cutoff of 24 points: 33.3%
ALS patients [1]; ALS severity of grade 3 or 4 at the start of cycle 7, about one-third
  patients with 25% improvement in ALSFRS-R slope of edaravone compared to placebo: 21/60
ALS patients [1]; change in uric acid level >0 (n=41)
  Percentage change in ALSFRS-R slope, Median: 14%
ALS patients [1]; change in uric acid level >0 from start of cycle 7 to last administration of cycle 12 (n=41)
  Percentage change in ALSFRS-R slope, Mean (SD): −64 (199) %
ALS patients [1]; change in uric acid level ≤0 (n=105)
  Percentage change in ALSFRS-R slope, Median: −38%
ALS patients [1]; change in uric acid level ≤0 from start of cycle 7 to last administration of cycle 12 (n=105)
  Percentage change in ALSFRS-R slope, Mean (SD): −201 (664) %
ALS patients [1]; [6]
  proportion of patients showing improvement in ALSFRS-R slope upon transition from placebo to edaravone treatment: 43.2% and 43%
  proportion of patients with at least a 25% improvement in ALSFRS-R slope, cutoff of 24 points: 24%
ALS patients [2]; Overall, EE group
  Uric acid level change from BL to cycle 12, Mean (SD): -0.25 mg/dL
ALS patients [2]; Overall, EE group, listed as Edaravone
  Uric acid level change from BL to cycle 12, Mean (SD): −0.25 (0.86) mg/dL
ALS patients [2]; Overall, EP group
  Uric acid level change from BL to cycle 12, Mean (SD): -0.22 mg/dL
ALS patients [2]; Overall, EP group, listed as Edaravone
  Uric acid level change from BL to cycle 12, Mean (SD): −0.22 (0.77) mg/dL
ALS patients [2]; Overall, Edaravone-Edaravone (EE) group
  Uric acid level at Cycle 12, Mean (SD): 4.4 (1.36) mg/dL
ALS patients [2]; Overall, Edaravone-Placebo (EP) group
  Uric acid level at Cycle 12, Mean (SD): 4.9 (1.20) mg/dL
ALS patients [2]; Overall, PE group
  Uric acid level change from BL to cycle 12, Mean (SD): -0.37 mg/dL
ALS patients [2]; Overall, PE group, listed as Edaravone
  Uric acid level change from BL to cycle 12, Mean (SD): −0.37 (0.86) mg/dL
ALS patients [2]; Overall, Placebo-Edaravone (PE) group
  Uric acid level at Cycle 12, Mean (SD): 4.5 (1.32) mg/dL
ALS patients [2]; [7]
  Uric acid level at Cycle 12, Mean (SD): 3.6 (0.85) mg/dL
  Uric acid level change from BL to cycle 12, Mean (SD): −0.10 (0.69) mg/dL
ALS patients [2]; [8]
  Uric acid level at Cycle 12, Mean (SD): 4.1 (0.93) mg/dL
  Uric acid level change from BL to cycle 12, Mean (SD): 0.15 (0.64) mg/dL
ALS patients [2]; [9]
  Uric acid level at Cycle 12, Mean (SD): 3.6 (0.95) mg/dL
  Uric acid level change from BL to cycle 12, Mean (SD): 0.00 (0.71) mg/dL
ALS patients [2]; [10]
  Uric acid level at Cycle 12, Mean (SD): 5.4 (1.21) mg/dL
  Uric acid level change from BL to cycle 12, Mean (SD): -0.4 mg/dL
ALS patients [2]; Subgroup with uric acid level baseline ≥4.8 mg/dL, EE group, listed as Edaravone
  Uric acid level change from BL to cycle 12, Mean (SD): −0.41 (1.01) mg/dL
ALS patients [2]; [11]
  Uric acid level at Cycle 12, Mean (SD): 5.5 (1.04) mg/dL
  Uric acid level change from BL to cycle 12, Mean (SD): -0.48 mg/dL
ALS patients [2]; Subgroup with uric acid level baseline ≥4.8 mg/dL, EP group, listed as Edaravone
  Uric acid level change from BL to cycle 12, Mean (SD): −0.48 (0.77) mg/dL
ALS patients [2]; [12]
  Uric acid level at Cycle 12, Mean (SD): 5.2 (1.17) mg/dL
  Uric acid level change from BL to cycle 12, Mean (SD): -0.68 mg/dL
ALS patients [2]; Subgroup with uric acid level baseline ≥4.8 mg/dL, PE group, listed as Edaravone
  Uric acid level change from BL to cycle 12, Mean (SD): −0.68 (0.86) mg/dL
ALS patients [3]; Overall
  ALSFRS-R total score at Cycle 12, Mean (SD): 32.8 (7.79) points
  ALSFRS-R total score change from baseline to cycle 12, LS Mean (SE): −8.7±0.53 points
  ALSFRS-R total score change from baseline to cycle 12, Mean (SD): −8.2 (6.16) points
ALS patients [3]; Overall, 95% CI [0.71, 3.72], p=0.0041
  ALSFRS-R total score change from baseline to cycle 12, LSMD vs placebo PRO-ACT (SE): 2.21±0.77 points
ALS patients [3]; Overall, listed as Edaravone
  ALSFRS-R total score change from baseline to cycle 12, LS Mean (SE): −8.7 (0.53) points
ALS patients [3]; [13]
  ALSFRS-R total score at Cycle 12, Mean (SD): 31.3 (8.79) points
  ALSFRS-R total score change from baseline to cycle 12, LS Mean (SE): −10.3 (0.74) points
  ALSFRS-R total score change from baseline to cycle 12, Mean (SD): −9.6 (7.52) points
ALS patients [3]; [14]
  ALSFRS-R total score at Cycle 12, Mean (SD): 34.0 (6.75) points
  ALSFRS-R total score change from baseline to cycle 12, LS Mean (SE): −7.3 (0.73) points
  ALSFRS-R total score change from baseline to cycle 12, Mean (SD): −7.1 (4.58) points
ALS patients [4]
  decrease in uric acid levels from baseline at cycle 6: smaller decrease in uric acid levels compared to the placebo group
ALS patients [5]
  change in ALSFRS-R total score compared to placebo: no statistically significant difference was observed compared to placebo
